Reference: patent publication US10722520B2, “Heterocyclic compounds and their use in preventing or treating bacterial infections” (MUTABILIS, priority 2016, dated 2020)

Columns and labels:
[1] = molecular target: OXA-48 (Klebsiella pneumoniae, UniProt Q6XEC0); details: read-out: IC50 β-lactamase OXA-48; class (D); nitrocefin 200 μM, 30-min pre-incubation, enzyme 0.3 nM
[2] = molecular target: KPC-2 (Klebsiella pneumoniae, UniProt Q9F663); details: read-out: IC50 β-lactamase KPC-2; class (A); nitrocefin 200 μM, 30-min pre-incubation, enzyme 1 nM
[3] = molecular target: CTX-M-15 (Escherichia coli, UniProt Q9EXV5); details: read-out: IC50 β-lactamase CTX-M-15; class (A); nitrocefin 200 μM, 30-min pre-incubation, enzyme 0.4 nM
[4] = molecular target: AmpC (PAE) (Pseudomonas aeruginosa, UniProt P24735); details: read-out: IC50 β-lactamase AmpC (PAE); class (C); nitrocefin 200 μM, 30-min pre-incubation, enzyme 0.4 nM
[5] = molecular target: OXA-15 (Pseudomonas aeruginosa, UniProt Q51574); details: read-out: IC50 β-lactamase OXA-15; class (D); nitrocefin 200 μM, 30-min pre-incubation, enzyme 0.4 nM
[6] = molecular target: AmpC (P99) (Enterobacter cloacae, UniProt P05364); details: read-out: IC50 β-lactamase AmpC (P99); class (C); nitrocefin 200 μM, 30-min pre-incubation, enzyme 0.2 nM
[7] = molecular target: SHV-1 (Klebsiella pneumoniae, UniProt P0AD64); details: read-out: IC50 β-lactamase SHV-1; class (A); nitrocefin 200 μM, 30-min pre-incubation, enzyme 0.075 nM
[8] = molecular target: OXA-1 (Escherichia coli, UniProt P13661); details: read-out: IC50 β-lactamase OXA-1; class (D); nitrocefin 200 μM, 30-min pre-incubation, enzyme 0.2 nM
[9] = molecular target: OXA-11 (Pseudomonas aeruginosa, UniProt Q06778); details: read-out: IC50 β-lactamase OXA-11; class (D); nitrocefin 200 μM, 30-min pre-incubation, enzyme 1.2 nM
[10] = molecular target: CMY-37 (Citrobacter freundii, UniProt P05193); details: read-out: IC50 β-lactamase CMY-37; class (C); nitrocefin 200 μM, 30-min pre-incubation, enzyme 0.2 nM
[11] = molecular target: TEM-1 (Escherichia coli, UniProt P62593); details: read-out: IC50 β-lactamase TEM-1; class (A); nitrocefin 200 μM, 30-min pre-incubation, enzyme 0.1 nM
[12] = system: E. coli 190317; assay: MIC of compound alone, broth microdilution; assay type: cell-based; details: strain 190317; compound alone
Summary of the method: (§1)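 Visual end point: lowest concentration that blocked growth. Conditions: cation-adjusted Mueller-Hinton broth, 5×10^5 cfu/mL final inoculum of log-phase bacteria, 16-20 h, 35° C, ambient atmosphere.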

[13] = system: E. cloacae P99; assay: MIC of compound alone, broth microdilution; assay type: cell-based; details: strain P99; compound alone
Summary of the method: as §1

[14] = system: P. aeruginosa CIP107051; assay: MIC of compound alone, broth microdilution; assay type: cell-based; details: strain CIP107051; compound alone
Summary of the method: as §1

[15] = system: K. pneumoniae 6299; assay: MIC of compound alone, broth microdilution; assay type: cell-based; details: strain 6299; compound alone
Summary of the method: as §1

[16] = system: K. pneumoniae BAA-1898; assay: MIC of compound alone, broth microdilution; assay type: cell-based; details: strain BAA-1898; compound alone
Summary of the method: as §1

[17] = system: E. coli 190317; assay: MIC of ceftazidime (CAZ) at fixed concentration of compound (synergy), broth microdilution; assay type: cell-based; details: strain 190317; MIC of CAZ, compound fixed at 4 μg/mL
Procedure: (§2) Log phase bacterial suspensions were adjusted to a final density of 5×10^5 cfu/mL in cation-adjusted Mueller-Hinton broth (Becton-Dickinson) and added to each well (98 μL). Microplates were incubated for 16-20 h at 35° C. in ambient air. The MIC of the compounds was defined as the lowest concentration of said compounds that prevented bacterial growth as read by visual inspection.

[18] = system: E. cloacae P99; assay: as above; assay type: cell-based; details: strain P99; MIC of CAZ, compound fixed at 4 μg/mL
Procedure: as §2

[19] = system: P. aeruginosa CIP107051; assay: as above; assay type: cell-based; details: strain CIP107051; MIC of CAZ, compound fixed at 4 μg/mL
Procedure: as §2

[20] = system: K. pneumoniae 6299; assay: as above; assay type: cell-based; details: strain 6299; MIC of CAZ, compound fixed at 4 μg/mL
Procedure: as §2

[21] = system: K. pneumoniae BAA-1898; assay: as above; assay type: cell-based; details: strain BAA-1898; MIC of CAZ, compound fixed at 4 μg/mL
Procedure: as §2

For `CC(=O)Nc1cnn(C2=CC3CN(C2)C(=O)N3OS(=O)(=O)[O-])c1.[Na+]` (stereo not drawn) [Example 21, sodium [3-(4-acetamidepyrazol-1-yl)-7-oxo-1,6-diazabicyclo[3.2.1]oct-3-en-6-yl]sulfate], the IC50 [1] was 0.045 µM, the IC50 [2] was 0.27 µM and the IC50 [3] was 0.0037 µM. The IC50 [4] was 0.32 µM, the IC50 [5] was 0.29 µM and the IC50 [6] was 0.23 µM. The IC50 [7] was 0.024 µM, the IC50 [8] was 2.1 µM and the IC50 [9] was 1.4 µM. The IC50 [10] was 0.099 µM, the IC50 [11] was 0.0061 µM and the “MIC compounds of the invention alone” value [12] was 16 µg/mL. For the same compound, the “MIC compounds of the invention alone” value [13] was over 32 µg/mL, the “MIC compounds of the invention alone” value [14] was over 32 µg/mL and the “MIC compounds of the invention alone” value [15] was over 32 µg/mL. For the same compound, the “MIC compounds of the invention alone” value [16] was over 32 µg/mL, the “MIC combination of CAZ and compounds of the invention at 4 μg/mL” value (“MIC combination” for short) [17] was 0.25 µg/mL and the “MIC combination” value [18] was 16 µg/mL. The “MIC combination” value [19] was 4 µg/mL, the “MIC combination” value [20] was 4 µg/mL and the “MIC combination” value [21] was 64 µg/mL.

Work on `Cc1cc(C(N)=O)nn1C1=CC2CN(C1)C(=O)N2OS(=O)(=O)[O-].[Na+]` (stereo not drawn) [Example 23, sodium (7-oxo-3-(3-carboxamide-5-methyl-pyrazol-1-yl)-1,6-diazabicyclo[3.2.1]oct-3-en-6-yl) sulfate] yielded an IC50 [1] of 0.11 µM, an IC50 [2] of 0.0057 µM and an IC50 [3] of 0.001 µM. The IC50 [4] was 0.22 µM, the IC50 [5] was 0.76 µM and the IC50 [6] was 0.038 µM. For the same compound, the IC50 [7] was 0.00036 µM, the IC50 [8] was 1.5 µM and the IC50 [9] was 1.1 µM. The IC50 [10] was 0.054 µM, the IC50 [11] was 0.00019 µM and the “MIC compounds of the invention alone” value [12] was over 32 µg/mL. The “MIC compounds of the invention alone” value [13] was over 32 µg/mL, the “MIC compounds of the invention alone” value [14] was over 32 µg/mL and the “MIC compounds of the invention alone” value [15] was over 32 µg/mL. The “MIC compounds of the invention alone” value [16] was over 32 µg/mL, the “MIC combination” value [17] was 0.5 µg/mL and the “MIC combination” value [18] was 8 µg/mL. The “MIC combination” value [19] was 16 µg/mL, the “MIC combination” value [20] was 4 µg/mL and the “MIC combination” value [21] was 4 µg/mL.

In the case of `NCCONC(=O)c1cnn(C2=CC3CN(C2)C(=O)N3OS(=O)(=O)[O-])c1.O=C(O)C(F)(F)F.[Na+]` (stereo not drawn) [Example 24, sodium and 2,2,2-trifluoroacetate [7-oxo-3-[4-carboxamide,N-(2-ammoniumethoxy)-pyrazol-1-yl]-1,6-diazabicyclo[3.2.1]oct-3-en-6-yl]sulfate], the IC50 [1] is reported as 0.0046 µM, the IC50 [2] is reported as 0.0052 µM and the IC50 [3] is reported as 0.00075 µM. The IC50 [4] was 0.16 µM, the IC50 [5] was 0.048 µM and the IC50 [6] was 0.012 µM. For the same compound, the IC50 [7] was 0.0024 µM, the IC50 [8] was 0.076 µM and the IC50 [9] was 0.095 µM. For the same compound, the IC50 [10] was 0.016 µM, the IC50 [11] was 0.00037 µM and the “MIC compounds of the invention alone” value [12] was 2 µg/mL. The “MIC compounds of the invention alone” value [13] was 16 µg/mL, the “MIC compounds of the invention alone” value [14] was over 32 µg/mL and the “MIC compounds of the invention alone” value [15] was over 32 µg/mL. The “MIC compounds of the invention alone” value [16] was over 32 µg/mL, the “MIC combination” value [17] was under 0.25 µg/mL and the “MIC combination” value [18] was 0.25 µg/mL. For the same compound, the “MIC combination” value [19] was 4 µg/mL, the “MIC combination” value [20] was 0.25 µg/mL and the “MIC combination” value [21] was 1 µg/mL.
